Data: ChEMBL document CHEMBL5634134, “Design, synthesis, and biological evaluation of novel 4,4'-bipyridine derivatives acting as CDK9-Cyclin T1 protein-protein interaction inhibitors against triple-negative breast cancer” (Eur J Med Chem, 2023)
The source made the active and inactive calls. The rule behind the calls is not given here.

How the values were obtained:
MDA-MB-231 [1] = test: cells; conditions: Homo sapiens, MDA-MB-231, 72 h
HeLa = test: cells; conditions: Homo sapiens, 72 h
[2] = Cytotoxicity against human L02 cells assessed as inhibition of cell growth incubated for 72 hrs by MTT assay; type: toxicity, cell-based
A549 = test: cells; conditions: Homo sapiens, A549, 72 h
MDA-MB-231 [3] = test: Inhibition of RNA Polymerase II CTD phosphorylation at ser2 residue in human MDA-MB-231 cells at 1 uM incubated for 24 hrs by Western blotting analysis; type: cell-based
MDA-MB-231 [4] = test: Antiproliferative activity against human MDA-MB-231 cells assessed as inhibition of cell growth incubated for 48 hrs by MTT assay; type: functional, cell-based; conditions: MDA-MB-231, 48 h
MDA-MB-231 [5] = test: Inhibition of colony formation in human MDA-MB-231 cells at 2 uM incubated for 10 days by crystal violet staining based analysis; type: functional, cell-based; conditions: time 10.0 day
MDA-MB-231 [6] = test: Antiproliferative activity against human MDA-MB-231 cells assessed as decrease in sphere size by measuring sphere diameter at 10 uM incubated for 10 days by confocal laser scanning microscopy (reference value: 508.27 micrometer); type: functional; conditions: time 10 day
[7] = Selectivity index, ratio of IC50 for the cytotoxicity against human LO2 cells to IC50 for antiproliferative activity against human MDA-MB-231 cells; type: toxicity, cell-based; conditions: LO2 cells versus MDA-MB-231 cells, read-out: Ratio IC50

SMILES	IC50 (MDA-MB-231 [1])	IC50 (HeLa)	IC50 at 72 h [2]	IC50 (A549)	inhibition (MDA-MB-231 [3])	IC50 (MDA-MB-231 [4])	inhibition (MDA-MB-231 [5])	Activity (MDA-MB-231 [6])	selectivity ratio [7]
COc1ccc(C(=O)Nc2cc(-c3ccnc(N(C)CCO)c3)ccn2)cc1	0.367 µM	0.527 µM	1.12 µM	> 10 µM					
COc1ccc(C(=O)Nc2cc(-c3ccnc(N4CCC(NC(=O)OC(C)(C)C)CC4)c3)ccn2)cc1	0.199 µM	> 10 µM	0.538 µM	3.29 µM					
COc1cc(C(=O)Nc2cc(-c3ccnc(N4CCC(O)CC4)c3)ccn2)cc(OC)c1OC	1.74 µM	5.73 µM	> 10 µM	5.68 µM	Active				
CC1CCN(c2cc(-c3ccnc(NC(=O)c4ccc(C(F)(F)F)cc4)c3)ccn2)CC1	3.18 µM	7.79 µM	> 10 µM	> 10 µM					
O=C(Nc1cc(-c2ccnc(N3CCC(O)CC3)c2)ccn1)c1cc(Cl)cc(Cl)c1	> 10 µM	> 10 µM	> 10 µM	> 10 µM					
COc1ccc(CC(=O)Nc2cc(-c3ccnc(N4CCC(O)CC4)c3)ccn2)cc1	7.86 µM	> 10 µM	> 10 µM	> 10 µM	Active				
COc1cccc(C(=O)Nc2cc(-c3ccnc(N4CCC(O)CC4)c3)ccn2)c1	3.94 µM	> 10 µM	2.98 µM	2.88 µM	Active				
Cc1cccc(C(=O)Nc2cc(-c3ccnc(N4CCC(C)CC4)c3)ccn2)c1	3.14 µM	> 10 µM	6.37 µM	> 10 µM					
O=P1(N(CCCl)CCCl)NCCCO1 (centres undefined) [CYCLOPHOSPHAMIDE ANHYDROUS]						> 50 µM			
CC(=O)O[C@H]1C(=O)[C@@]2(C)[C@H]([C@H](OC(=O)c3ccccc3)[C@]3(O)C[C@H](OC(=O)[C@H](O)[C@@H](NC(=O)c4ccccc4)c4ccccc4)C(C)=C1C3(C)C)[C@]1(OC(C)=O)CO[C@@H]1C[C@@H]2O [PACLITAXEL]						< 0.005 µM			
COc1ccc(CCC(=O)Nc2cc(-c3ccnc(N4CCC(O)CC4)c3)ccn2)cc1	> 10 µM	> 10 µM	> 10 µM	> 10 µM	Active				
COc1ccc(C(=O)Nc2cc(-c3ccnc(N4CCN(C)CC4)c3)ccn2)cc1	0.485 µM	> 10 µM	> 10 µM	4.1 µM					
O=C(Nc1cc(-c2ccnc(N3CCC(O)CC3)c2)ccn1)c1ccc(C(F)(F)F)cc1	0.112 µM	0.257 µM	1.96 µM	1.65 µM	Active				
O=c1[nH]cc(F)c(=O)[nH]1 [FLUOROURACIL]						13.9 µM			
O=C(c1cc(Cc2n[nH]c(=O)c3ccccc23)ccc1F)N1CCN(C(=O)C2CC2)CC1 [OLAPARIB]						> 50 µM	inactive	472.83 um	
CC1CCCN(c2cc(-c3ccnc(NC(=O)c4ccc(F)cc4)c3)ccn2)C1 (centres undefined)	0.273 µM	0.474 µM	1.23 µM	4.32 µM					
COc1ccc(C(=O)Nc2cc(-c3ccnc(N4CCCC(CO)C4)c3)ccn2)cc1 (centres undefined)	0.076 µM	0.272 µM	2.6 µM	2.44 µM					34
